pIC50: −log10 of the molar value. “Also recorded” adds a separate entry of the source.
Assays:
Cdk2 [1] = target: T1, Cdk2 (Homo sapiens, UniProt P24941); test: Immunofluorescence microscopy of Cdk2 distribution; format: cell-based; parameters: endogenous in cells; conditions: MDA-MB-468 breast cancer cells, 24 hours
Method: FIG. 6. Immunofluorescence microscopy of cellular distribution of Cdks in the absence (upper panels) and presence (lower panels) of a compound of the invention. MDA-MB-468 breast cancer cells were treated with the indicated concentration of pocket 1 compound #7 for 24 hours. Immunofluorescence microscopy was performed using an antibody to Cdk2. […] These aggregates are most apparent at sites of cell-cell contact.
(§1) It appears that compounds of the invention can cause redistribution of Cdk1, Cdk2, and Cdk4 in cells.

DU145 cells = test: 3H-thymidine incorporation assay, DU145; format: cell-based, human; conditions: 100 μM, 24 hours
Source text: (§2) FIG. 2. In silico molecular docking and preliminary analysis of potential Cyclin/Cdk2 inhibitors. (A) Cyclin A/Cdk2/p27 complex with spheres docked into the binding pocket (Pocket #1) and the pocket enclosed in a scoring grid (rectangular box). (B) Binding cleft shown filled with spheres, the top 10 hits superimposed into the binding pocket (All Hits), and the predicted mode of binding of individual hits in the Cyclin A/Cdk2/p27 pocket (Hits #3-10). (C) NMuMG (black bars) or DU145 cells (open bars) were treated for 24 hours with 100 μM of the indicated compounds and ^3H-thymidine incorporation was measured to assess rates of cell proliferation. Roscovitine is a known Cdk inhibitor and was included as a positive control. DMSO (0.1%) was included as a vehicle control. (D) Morphological change induced by 100 μM Hit #10 in NMuMG and DU145 cells after treatment for 24 hours.
(§3) Labeled thymidine (^3H-thymidine) incorporation assays were used to screen compounds at a concentration of 100 μM using mouse mammary epithelial cells and the human prostate cancer cell line DU145.
Human prostate cancer DU145 cells were plated at 30,000 cells per well in 24-well plates and allowed to attach for 24 hours. The cells were treated for 24 hours with either 100 μM of the indicated compounds, 0.1% DMSO as a vehicle control, or left untreated. The cells were pulsed with ^3H-thymidine for two hours. The cells were fixed in 10% trichloroacetic acid and washed a total of three times with 10% trichloroacetic acid. The ^3H-thymidine-labeled DNA was dissolved in 0.2% NaOH, mixed with scintillation fluid, and the associated radioactivity quantitated using a scintillation counter. These experiments were performed in triplicate and the results are presented as the average thymidine incorporation±standard deviation. […]

Cdk4 [2] = target: T2, Cdk4 (Homo sapiens, UniProt P11802); test: Immunofluorescence microscopy of Cdk4 distribution; format: cell-based
T2 construct: endogenous in cells; host or cells: BT549
Source text: as §1

Cdk1 [3] = target: T3, Cdk1 (Homo sapiens, UniProt P06493); test: Immunoblot of cellular Cdk1 level in BT549 cells; format: cell-based; conditions: 24 or 48 hours, time- and dose-dependent
T3 construct: endogenous in cells; host or cells: BT549
Method: (§4) BT549 cells were treated with the indicated Pocket #1 compounds for the indicated intervals. Cell lysates were prepared and the amounts of Cdk1, Cdk2, and Cdk4 were determined by immunoblot. Actin staining serves as a loading control. DMSO serves as a vehicle control.
(§5) Human breast cancer BT549 cells were treated as indicated for 24 or 48 hours with either 0.2% DMSO as a vehicle control, or compounds #3, #4, and #7 at the indicated concentrations. Cell lysates were prepared, normalized for protein content, resolved by SDS-PAGE and the proteins transferred to nitrocellulose. Levels of Cdk1, Cdk2, and Cdk4 were measured using primary antibodies specific for these proteins, followed by alkaline-phosphatase-conjugated secondary antibodies and colorimetric detection using the substrate NBT/BCIP.

Cdk2 [4] = target: T1, Cdk2; test: Immunoblot of cellular Cdk2 level in BT549 cells; format: cell-based; parameters: endogenous in cells; host or cells: BT549; conditions: 24 or 48 hours, time- and dose-dependent
Method: as §4, §5

Cdk4 [5] = target: T2, Cdk4; test: Immunoblot of cellular Cdk4 level in BT549 cells; format: cell-based; conditions: 24 or 48 hours, time- and dose-dependent
Method: as §4, §5

Cdk1 [6] = target: T3, Cdk1; test: Immunofluorescence microscopy of Cdk1 distribution; format: cell-based
Source text: as §1

[7] = system: BT549 breast cancer cells; test: 3H-thymidine incorporation assay, BT549; format: cell-based, human
Method: FIG. 4. Compounds #1, #7, and #11 inhibit proliferation of BT549 breast cancer cells. BT549 cells were treated for 24 hours with the indicated “Pocket #1” compounds. The effect of treatment on cell proliferation was quantitated by measuring the amount of ^3H-Thymidine incorporated into cellular DNA over a two hour time interval. The results are presented as the average of triplicate determinations ±standard deviation.
FIG. 5. Compounds predicted to bind to “Pocket #2” inhibit proliferation of BT549 breast cancer cells. BT549 cells were treated for 24 hours with the indicated “Pocket #2” compounds. The effect of treatment on cell proliferation was quantitated by measuring the amount of ^3H-Thymidine incorporated into cellular DNA over a two hour time interval. The results are presented as the average of triplicate determinations ±standard deviation.
Additional ^3H-thymidine incorporation assays were performed to determine whether the “Pocket #2” binding drugs (see Table 2) inhibit cell proliferation at concentrations lower than 100 μM.

NMuMG cells = test: 3H-thymidine incorporation assay, NMuMG; format: cell-based, mouse; conditions: 100 μM, 24 hours
Source text: as §2, §3
Seven of the molecules identified in Example 1 as having the top estimated binding energies (Hits/Compounds 3, 4, 6, 7, 8, 9, and 10) were obtained and tested for their ability to induce cell cycle arrest of mouse mammary NMuMG and DU145 human prostatic carcinoma cell lines in ^3H-thymidine incorporation assays (FIG. 2C). […] Thus at least five of the ten top-ranked compounds are cell permeable and induce an appreciable arrest of cancer cell proliferation.

PC-3 tumor cells = test: PC-3 tumor in mice, intratumoral injection with CD44 RNA interference; format: in vivo; conditions: combined with CD44 RNA interference, after 11 days of injection, three treated animals
Method: The effect of 4-tert-Butyl-2-nitroaniline when combined with CD44 RNA interference was therefore investigated.
Seven-wk-old mice (Jackson Laboratory, Bar Harbor, Me.) were injected in the right flank with 2×10^6 PC-3 tumor cells in 500 μl liquid Matrigel. […] By 14 days after injection, a tumor mass was palpable and at 27 days, 4-tert-Butyl-2-nitroaniline and CD44 RNAi therapy commenced. Gene transfection was controlled for quantitation by injecting a constant 10 μg of vector. This approach involved mixing volume of DNA containing 10 μg of pU6BS (and subsequently pTracer) plasmid having the CD44 RNAi construct with 10 μl of Metafectene before injection into the tumor. Both Metafectene and DNA were diluted separately in 100 μl of sterile serum-free RPMI before mixing (see, e.g., Iczkowski K A, Omara-Opyene A L, and Klösel R., Molecular Biotechnology 2004; 28:97-103). The mixture was then allowed to stand for 30 minutes before injection to allow the formation of Metafectene:DNA complexes.
Intra-tumoral injection was performed five times weekly, angling the needle at different areas of the tumor during a given injection as well as varying the injection site for each injection occasion. Control animals were injected with 100 μl consisting of 50 μl empty vector/medium plus 50 μl of Metafectene.

[8] = system: multiple human cancer cell lines; conditions: NCI screen, read-out: average 50% inhibitory concentration (IC50), proliferation; cited from earlier work
PC3 prostate tumor cells = test: Mouse xenograft tumor model, PC3; format: in vivo, SCID mice; conditions: intratumoral, 1:50 dilution (2 mM), compared with 1:50 DMSO in PBS in two controls
Method: A compound of the invention (Compound 1) was tested in a mouse xenograft tumor model to determine whether the compound can inhibit tumor growth in vivo.
SCID mice were subcutaneously implanted with PC3 prostate tumor cells in the flank and were administered intratumorally with controls (DMSO) or a test compound.
The two control animals were sacrificed when the total tumor volume (L×W×H) exceeded 1.5 cc. The treated animal was sacrificed because a small but significant skin ulceration was developing over the tumor.

[9] = system: prostate cancer cell line, Gs-α; test: Matrigel cell invasion assay; format: cell-based; conditions: Matrigel invasion chambers, 36 h
Method: A cell invasion assay was performed on an aggressive prostate cancer cell line, Gs-α, to determine the effects of selected compounds that inhibit cell proliferation.
The experiment was performed in six-well Matrigel two-tier invasion chambers (Collaborative Biomedical Products, Bedford, Mass., USA), using a protocol similar to that used successfully by others (see, e.g., Chien J, Wong E, Nikes E et al., Oncogene 1999; 18: 3376-3382, incorporated herein by reference). […]
While the membranes were still wet in culture dishes, the GFP-positive cells on the entire membrane were counted under fluorescent illumination. […] The total number of cells on the entire gel was counted. The data from invasion assay were corrected for cell growth during experimental periods as follows: the experimental cells were plated at a density of 10^5 cells per well in six-well control inserts in chemoattractant medium and increase in cell number were determined after 48 h. […] The results were expressed as mean±standard deviation. […]
Significance of differences in Percent Invasion according to treatment (or transfection of Metafectene vehicle alone) were assessed by Student's t-test.

T2 sequence (P11802 whole entry): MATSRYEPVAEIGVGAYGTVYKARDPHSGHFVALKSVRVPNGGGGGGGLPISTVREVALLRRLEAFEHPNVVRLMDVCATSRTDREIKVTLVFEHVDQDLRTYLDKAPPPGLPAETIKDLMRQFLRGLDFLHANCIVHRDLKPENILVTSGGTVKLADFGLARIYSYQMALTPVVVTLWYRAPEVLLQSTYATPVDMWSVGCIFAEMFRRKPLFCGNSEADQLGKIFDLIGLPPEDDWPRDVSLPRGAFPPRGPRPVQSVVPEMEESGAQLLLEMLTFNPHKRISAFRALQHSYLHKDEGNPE
T3 sequence (P06493 whole entry): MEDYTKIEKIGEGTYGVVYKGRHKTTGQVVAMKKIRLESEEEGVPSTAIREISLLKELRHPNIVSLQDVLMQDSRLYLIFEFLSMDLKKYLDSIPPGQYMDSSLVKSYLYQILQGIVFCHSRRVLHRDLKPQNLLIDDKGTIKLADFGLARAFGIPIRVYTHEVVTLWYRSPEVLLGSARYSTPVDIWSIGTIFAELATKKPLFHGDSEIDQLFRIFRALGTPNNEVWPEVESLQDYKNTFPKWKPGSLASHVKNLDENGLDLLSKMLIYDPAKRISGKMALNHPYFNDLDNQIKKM

What does the source list for `COc1ccc(C(C#N)=Cc2ccccn2)cc1` [Compound 7, 2-(4-methoxyphenyl)-3-pyridin-2-yl-prop-2-enenitrile]?
Cdk2 localization (Cdk2 [1]): aggregates appear primarily at cell-cell junctions; also recorded: change in Cdk2 localization consistent with aggregation; inhibition of cell proliferation (3H-thymidine incorporation) (DU145 cells): significantly inhibited proliferation; Cdk4 localization (Cdk4 [2]): aggregates appear on top of the nuclei; cellular level of Cdk1 (Cdk1 [3]): Decrease the Cellular Levels; cellular level of Cdk2 (Cdk2 [4]): Decrease the Cellular Levels; cellular level of Cdk4 (Cdk4 [5]): Decrease the Cellular Levels; Cdk1 localization (Cdk1 [6]): aggregates appear primarily at cell-cell junctions; inhibition of proliferation (3H-thymidine incorporation) ([7]; 24 hours): inhibit the proliferation; inhibition of cell proliferation (3H-thymidine incorporation) (NMuMG cells): significantly inhibited proliferation

With `CC(C)(C)c1ccc(N)c([N+](=O)[O-])c1` [Compound 3, 4-tert-Butyl-2-nitroaniline] as the molecule, how does the “decrease of tumor volume” value (PC-3 tumor cells) read?
Its value is “more than 50%”.

With `COc1ccc2oc3cccc(NN(C)C)c3c(=O)c2c1` [Compound 2, 1-(N′,N′-Dimethyl-hydrazino)-7-methoxy-xanthen-9-one] as the molecule, how does the pIC50 [8] read?
The pIC50 was 4.92.

What does the source list for `O=C(N/N=C\c1cc(Br)ccc1O)N/N=C/c1cc(Br)ccc1O` [VDW9]?
inhibition of proliferation (3H-thymidine incorporation) ([7]; 2 μM, 24 hours): inhibited proliferation; inhibition of proliferation (3H-thymidine incorporation) ([7]; 10 μM, 24 hours): inhibited proliferation

For `c1ccc(OSOc2ccccc2)cc1` [Compound 10], which “inhibition of cell proliferation (3H-thymidine incorporation)” value (DU145 cells) is on record?
Its value is “significantly inhibited proliferation”.

And the morphological change (DU145 cells)?
Its morphological change is “dramatic morphological change”.

What about the “inhibition of cell proliferation (3H-thymidine incorporation)” value (NMuMG cells) of the same molecule?
Its value is “significantly inhibited proliferation”.

And the morphological change (NMuMG cells)?
Its morphological change is “dramatic morphological change”.

For `Cc1ccc(C(=O)/C=C/c2ccccc2)s1` [Compound 1], which tumor growth (PC3 prostate tumor cells) is on record?
The tumor growth was “markedly reduced tumor growth”.

And the “cell invasiveness in vitro” value [9]?
The value was “inhibit cell invasiveness”.

What about the “potency compared with Compound 7” value [7] of the same molecule?
Its value is “more potent than Compound 7”.

What about the “effective concentration for inhibition of proliferation” value ([7]; 24 hours) of the same molecule?
The value was “low micromolar concentrations”.

And the “inhibition of proliferation (3H-thymidine incorporation)” value ([7]; 24 hours)?
Its value is “inhibit the proliferation”.

— US8569356B2, “Cyclin dependent kinase inhibitors” (University of Florida Research Foundation, Inc., priority 2005, dated 2013)
